Results: US8148391B2 (Cephalon, Inc., priority 2006, dated 2012)
Like-named read-outs stand apart in the source and are kept apart here.

Experiments:
[1] = molecular target: T1, baculovirus-expressed ALK (Homo sapiens, UniProt Q9UM73); assay: ALK Kinase Assay (ELISA-type, time-resolved fluorescence); format: biochemical
T1 construct: host or cells: baculovirus expression system
Method in brief: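 Wells were coated with phospholipase C-γ at 10 μg/mL in Tris-buffered saline. Adding 30 ng/ml enzyme started the reaction, which ran at 37° C for 15 minutes before Eu-N1 PT66 antibody detection. Percent inhibition versus log10 concentration gave IC50 by variable-slope fit.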

[2] = molecular target: T2, c-Met (cytoplasmic domain) (Homo sapiens, UniProt P08581); assay: c-Met Kinase Assay (same methods as for ALK, with modifications); format: biochemical
T2 construct: 10 ng/mL c-Met (cytoplasmic domain, Invitrogen Corporation #PV3143); purchased Invitrogen Corporation PV3143
T2 sequence (P08581 956-1390 limits assumed): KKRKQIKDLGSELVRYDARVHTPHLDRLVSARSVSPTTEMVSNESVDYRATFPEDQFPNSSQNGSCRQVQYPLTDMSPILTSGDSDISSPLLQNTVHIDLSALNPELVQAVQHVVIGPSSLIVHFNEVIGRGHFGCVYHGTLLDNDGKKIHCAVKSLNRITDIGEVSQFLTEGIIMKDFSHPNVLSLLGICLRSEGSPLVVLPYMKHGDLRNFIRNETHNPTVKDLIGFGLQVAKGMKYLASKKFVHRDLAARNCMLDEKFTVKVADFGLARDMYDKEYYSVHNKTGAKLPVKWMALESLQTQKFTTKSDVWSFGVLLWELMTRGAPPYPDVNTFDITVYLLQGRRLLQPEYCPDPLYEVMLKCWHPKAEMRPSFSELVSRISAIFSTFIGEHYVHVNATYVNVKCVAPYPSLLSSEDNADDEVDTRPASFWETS
Method in brief: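 Steps: coat wells with PLC-γ (10 μg/mL, Tris-buffered saline); add 10 ng/mL c-Met cytoplasmic domain to initiate; incubate 15 min, 37° C; detect phosphoproduct via Eu-N1 PT66 antibody.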

[3] = ALK kinase inhibition, 1 μM ATP, read-out: ALK Activity
[4] = c-Met kinase inhibition, 1 μM ATP, read-out: cMet Activity
[5] = 1 μM ATP (Km level), read-out: ALK Activity (ALK Kinase Inhibition, IC50)
[6] = 1 μM ATP (Km level), read-out: cMet Activity (c-Met Kinase Inhibition, IC50)
[7] = ALK kinase inhibition, 1 μM ATP (Km level), read-out: ALK Activity
[8] = c-Met kinase inhibition, 1 μM ATP (Km level), read-out: cMet Activity
[9] = 1 μM ATP (Km level), 30 ng/ml ALK, 37° C., 15 minutes, read-out: ALK Activity (ALK kinase inhibition, IC50 class)
[10] = 1 μM ATP (Km level), 10 ng/mL c-Met, read-out: cMet Activity (c-Met kinase inhibition, IC50 class)

T1 sequence (Q9UM73 19-1620): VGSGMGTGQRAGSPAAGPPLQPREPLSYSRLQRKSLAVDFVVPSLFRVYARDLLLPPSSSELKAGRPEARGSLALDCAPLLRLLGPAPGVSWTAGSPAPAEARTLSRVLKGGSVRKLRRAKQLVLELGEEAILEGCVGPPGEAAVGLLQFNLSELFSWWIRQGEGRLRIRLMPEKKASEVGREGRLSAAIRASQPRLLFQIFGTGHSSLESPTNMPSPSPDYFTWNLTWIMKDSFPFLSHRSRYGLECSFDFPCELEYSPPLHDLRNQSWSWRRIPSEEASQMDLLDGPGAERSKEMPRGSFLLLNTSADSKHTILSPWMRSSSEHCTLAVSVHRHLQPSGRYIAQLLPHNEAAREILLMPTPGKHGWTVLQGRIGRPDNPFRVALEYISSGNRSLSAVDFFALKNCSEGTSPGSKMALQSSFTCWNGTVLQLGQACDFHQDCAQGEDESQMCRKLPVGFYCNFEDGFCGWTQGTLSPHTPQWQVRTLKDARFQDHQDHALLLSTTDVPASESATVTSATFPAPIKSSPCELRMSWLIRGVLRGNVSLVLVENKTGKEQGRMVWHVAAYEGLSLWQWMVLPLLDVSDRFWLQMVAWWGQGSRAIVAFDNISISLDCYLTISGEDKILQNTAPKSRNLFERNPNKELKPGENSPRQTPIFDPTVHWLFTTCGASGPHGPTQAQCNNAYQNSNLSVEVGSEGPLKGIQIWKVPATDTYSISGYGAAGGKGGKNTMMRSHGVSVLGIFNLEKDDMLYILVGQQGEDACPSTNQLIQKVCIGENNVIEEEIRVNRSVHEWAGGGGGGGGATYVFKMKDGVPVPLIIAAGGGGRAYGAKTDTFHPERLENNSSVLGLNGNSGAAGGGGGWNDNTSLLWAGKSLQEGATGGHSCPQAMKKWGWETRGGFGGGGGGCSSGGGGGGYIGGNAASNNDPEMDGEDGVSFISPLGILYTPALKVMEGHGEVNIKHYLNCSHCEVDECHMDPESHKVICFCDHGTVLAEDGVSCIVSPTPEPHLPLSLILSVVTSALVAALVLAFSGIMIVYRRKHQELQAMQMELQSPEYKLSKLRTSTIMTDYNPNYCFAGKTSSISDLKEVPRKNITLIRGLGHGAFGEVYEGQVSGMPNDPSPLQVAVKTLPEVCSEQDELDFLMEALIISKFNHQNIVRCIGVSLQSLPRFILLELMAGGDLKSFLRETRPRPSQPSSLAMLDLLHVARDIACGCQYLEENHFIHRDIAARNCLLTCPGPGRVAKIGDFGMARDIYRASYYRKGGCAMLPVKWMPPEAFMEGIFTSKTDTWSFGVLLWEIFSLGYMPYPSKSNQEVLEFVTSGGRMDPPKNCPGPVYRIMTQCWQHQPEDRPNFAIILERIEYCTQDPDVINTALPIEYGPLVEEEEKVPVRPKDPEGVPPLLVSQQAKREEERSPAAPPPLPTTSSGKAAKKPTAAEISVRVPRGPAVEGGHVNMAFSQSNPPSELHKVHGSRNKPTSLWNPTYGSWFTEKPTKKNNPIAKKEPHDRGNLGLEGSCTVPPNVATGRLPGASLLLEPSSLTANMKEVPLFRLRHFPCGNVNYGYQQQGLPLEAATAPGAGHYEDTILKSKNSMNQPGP

CN1C(=O)CCC(C)(C)c2cc(Nc3ncc(Cl)c(N[C@@H]4CCCC[C@H]4N(C)S(C)(=O)=O)n3)ccc21 [Example 1680, N-{(1R,2R)-2-[5-Chloro-2-(1,5,5-trimethyl-2-oxo-2,3,4,5-tetrahydro-1H-benzo[b]azepin-7-ylamino)-pyrimidin-4-ylamino]-cyclohexyl}-N-methyl-methanesulfonamide]
IC50 [1, 3]: < 0.1 µM
IC50 [2, 4]: 0.1 to 1 µM

CNC(=O)c1ccccc1Nc1nc(Nc2ccc3c(c2)NC(=O)CN(CCOC)C3)ncc1Cl [Example 1864, 2-{5-Chloro-2-[4-(2-methoxy-ethyl)-2-oxo-2,3,4,5-tetrahydro-1H-benzo[e][1,4]diazepin-8-ylamino]-pyrimidin-4-ylamino}-N-methyl-benzamide]
IC50 [1, 3]: < 0.1 µM
IC50 [2, 4]: < 0.1 µM

CCN1CCNC(=O)c2ccc(Nc3ncc(Cl)c(N[C@@H]4CCCC[C@H]4NS(C)(=O)=O)n3)cc21 [Example 1451, N-{(1R,2R)-2-[5-Chloro-2-(1-ethyl-5-oxo-2,3,4,5-tetrahydro-1H-benzo[e][1,4]diazepin-8-ylamino)-pyrimidin-4-ylamino]-cyclohexyl}-methanesulfonamide]
IC50 [1, 3]: < 0.1 µM
IC50 [2, 4]: 0.1 to 1 µM

CNC(=O)c1ccccc1Nc1nc(Nc2ccc3c(c2OC)CCC(=O)CC3)ncc1Cl [Example 868, 2-[5-Chloro-2-(1-methoxy-7-oxo-6,7,8,9-tetrahydro-5H-benzocyclohepten-2-ylamino)-pyrimidin-4-ylamino]-N-methyl-benzamide]
IC50 [1, 5]: < 0.1 µM
IC50 [2, 6]: > 10 µM

CNC(=O)c1ccccc1N(C)c1nc(Nc2ccc3c(c2)CC(=O)N(C)CC3)ncc1F [Example 1824, 2-{[5-Fluoro-2-(3-methyl-4-oxo-2,3,4,5-tetrahydro-1H-benzo[d]azepin-7-ylamino)-pyrimidin-4-yl]-methyl-amino}-N-methyl-benzamide]
IC50 [1, 3]: 1 to 10 µM
IC50 [2, 4]: > 10 µM

CCN1CCc2ccc(Nc3ncc(Cl)c(Nc4ccccc4-c4nccn4C)n3)cc2CC1 [Example 216, 5-Chloro-N*2*-(3-ethyl-2,3,4,5-tetrahydro-1H-benzo[d]azepin-7-yl)-N*4*-[2-(1-methyl-1H-imidazol-2-yl)-phenyl]-pyrimidine-2,4-diamine]
IC50 [1, 7]: < 0.1 µM
IC50 [2, 8]: 0.1 to 1 µM

CNC(=O)c1ccccc1Nc1nc(Nc2ccc3c(c2)C2CC3CN(S(C)(=O)=O)C2)ncc1Cl (stereo not shown) [Example 164, 2-[5-Chloro-2-(10-methanesulfonyl-10-aza-tricyclo[6.3.1.0*2,7*]dodeca-2,4,6-trien-4-ylamino)-pyrimidin-4-ylamino]-N-methyl-benzamide]
IC50 [1, 7]: 0.1 to 1 µM
IC50 [2, 8]: < 0.1 µM

COc1cc2c(cc1Nc1ncc(Cl)c(Nc3ccccc3S(=O)(=O)N(C)C)n1)CCN(C(CF)CF)CC2 [Example 1393, {5-Chloro-2-[3-(2-fluoro-1-fluoromethyl-ethyl)-8-methoxy-2,3,4,5-tetrahydro-1H-benzo[d]azepin-7-ylamino]-pyrimidin-4-ylamino}-N,N-dimethyl-benzenesulfonamide]
IC50 [1, 9]: < 0.1 µM
IC50 [2, 10]: > 10 µM

(1S,2S,3R,4R)-3-{5-Chloro-2-[6-(2-hydroxy-ethylamino)-1-methoxy-6,7,8,9-tetrahydro-5H-benzocyclohepten-2-ylamino]-pyrimidin-4-ylamino}-bicyclo[2.2.1]hept-5-ene-2-carboxylic acid amide [Example 960]
IC50 [1, 5]: < 0.1 µM
IC50 [2, 6]: > 10 µM

COc1cc2c(cc1Nc1ncc(Cl)c(Nc3ccccc3S(=O)(=O)N(C)C)n1)CCN(CC(=O)N(C)C)CC2 [Example 1141, 2-{7-[5-Chloro-4-(2-dimethylsulfamoyl-phenylamino)-pyrimidin-2-ylamino]-8-methoxy-1,2,4,5-tetrahydro-benzo[d]azepin-3-yl}-N,N-dimethyl-acetamide]
IC50 [1, 9]: < 0.1 µM
IC50 [2, 10]: 1 to 10 µM

COCCN1CCc2ccc(Nc3ncc(Cl)c(N[C@@H]4CCCC[C@H]4NS(C)(=O)=O)n3)cc2CC1 [Example 36, N-((1R,2R)-2-{5-Chloro-2-[3-(2-methoxy-ethyl)-2,3,4,5-tetrahydro-1H-benzo[d]azepin-7-ylamino]-pyrimidin-4-ylamino}-cyclohexyl)-methanesulfonamide]
IC50 [1, 7]: < 0.1 µM
IC50 [2, 8]: 1 to 10 µM

C#CCN1CCc2ccc(Nc3ncc(Cl)c(Nc4ccccc4C(=O)NC)n3)cc2CC1 [Example 322, 2-[5-Chloro-2-(3-prop-2-ynyl-2,3,4,5-tetrahydro-1H-benzo[d]azepin-7-ylamino)-pyrimidin-4-ylamino]-N-methyl-benzamide]
IC50 [1, 7]: < 0.1 µM
IC50 [2, 8]: < 0.1 µM

COc1cc2c(cc1Nc1ncc(Cl)c(N[C@@H]3CCCC[C@H]3NS(C)(=O)=O)n1)CCN(CCNC(C)=O)CC2 [Example 256, N-(2-{7-[5-Chloro-4-((1R,2R)-2-methanesulfonylamino-cyclohexylamino)-pyrimidin-2-ylamino]-8-methoxy-1,2,4,5-tetrahydro-benzo[d]azepin-3-yl}-ethyl)-acetamide]
IC50 [1, 7]: < 0.1 µM
IC50 [2, 8]: > 10 µM

COc1cc2c(cc1Nc1ncc(Cl)c(NC3(C(=O)NCC#N)CC3)n1)CCN(CC(=O)N(C)C)CC2 [Example 1199, 1-[5-Chloro-2-(3-dimethylcarbamoylmethyl-8-methoxy-2,3,4,5-tetrahydro-1H-benzo[d]azepin-7-ylamino)-pyrimidin-4-ylamino]-cyclopropanecarboxylic acid cyanomethyl-amide]
IC50 [1, 9]: 0.1 to 1 µM
IC50 [2, 10]: > 10 µM

COc1c(Nc2ncc(Cl)c(NC3C4C=CC(C4)C3C(N)=O)n2)ccc2c1CCCC(=O)N2C (stereo not drawn) [Example 115, (2-exo, 3-exo)-3-[5-Chloro-2-(6-methoxy-1-methyl-2-oxo-2,3,4,5-tetrahydro-1H-benzo[b]azepin-7-ylamino)-pyrimidin-4-ylamino]-bicyclo[2.2.1]hept-5-ene-2-carboxylic acid amide]
IC50 [1, 7]: < 0.1 µM
IC50 [2, 8]: > 10 µM

CCN1CCN(CC)c2cc(Nc3ncc(Cl)c(Nc4ccccc4-c4nccn4C)n3)ccc2C1 [Example 715, 5-Chloro-N*2*-(1,4-diethyl-2,3,4,5-tetrahydro-1H-benzo[e][1,4]diazepin-8-yl)-N*4*-[2-(1-methyl-1H-imidazol-2-yl)-phenyl]-pyrimidine-2,4-diamine]
IC50 [1, 5]: < 0.1 µM
IC50 [2, 6]: 0.1 to 1 µM

COc1cc(N2CCOCC2)ccc1Nc1nc(Nc2ccc3c(c2)C2CCC3CN(C(=O)C(F)(F)F)C2)ncc1Cl (stereo not shown) [Example 290, 2-{4-[5-Chloro-4-(2-methoxy-4-morpholin-4-yl-phenylamino)-pyrimidin-2-ylamino]-10-aza-tricyclo[6.3.2.0*2,7*]trideca-2,4,6-trien-10-yl}-2,2,2-trifluoro-ethanone]
IC50 [1, 7]: 0.1 to 1 µM
IC50 [2, 8]: > 10 µM

CNC(=O)c1ccccc1Nc1nc(Nc2ccc3c(c2)C2CCC3CN(S(C)(=O)=O)C2)ncc1Cl (stereo not shown) [Example 278, 2-[5-Chloro-2-(10-methanesulfonyl-10-aza-tricyclo[6.3.2.0*2,7*]trideca-2,4,6-trien-4-ylamino)-pyrimidin-4-ylamino]-N-methyl-benzamide]
IC50 [1, 7]: < 0.1 µM
IC50 [2, 8]: < 0.1 µM

CNC(=O)c1ccccc1Nc1nc(Nc2ccc3c(c2)COCC2CCCCN32)ncc1Cl (stereo not shown) [Example 14, 2-[5-Chloro-2-(7,7a,8,9,10,11-hexahydro-5H-6-oxa-11a-aza-dibenzo[a,c]cyclohepten-3-ylamino)-pyrimidin-4-ylamino]-N-methyl-benzamide]
IC50 [1, 7]: < 0.1 µM
IC50 [2, 8]: < 0.1 µM

COc1cc2c(cc1Nc1ncc(Cl)c(N[C@@H]3CCCC[C@H]3NS(C)(=O)=O)n1)CCNC(=O)C2 [Example 263, N-{(1R,2R)-2-[5-Chloro-2-(8-methoxy-2-oxo-2,3,4,5-tetrahydro-1H-benzo[d]azepin-7-ylamino)-pyrimidin-4-ylamino]-cyclohexyl}-methanesulfonamide]
IC50 [1, 7]: < 0.1 µM
IC50 [2, 8]: > 10 µM

COCC(=O)NC1CC(C)(C)c2ccc(Nc3ncc(Cl)c(Nc4c(F)cccc4C(=O)NCC#N)n3)cc2NC1=O (stereo not shown) [Example 1637, 2-{5-Chloro-2-[3-(2-methoxy-acetylamino)-5,5-dimethyl-2-oxo-2,3,4,5-tetrahydro-1H-benzo[b]azepin-8-ylamino]-pyrimidin-4-ylamino}-N-cyanomethyl-3-fluoro-benzamide]
IC50 [1, 3]: < 0.1 µM
IC50 [2, 4]: < 0.1 µM

CN1C(=O)OCCc2cc(Nc3ncc(Cl)c(Nc4c(F)cccc4OCC(O)CO)n3)ccc21 (stereo not shown) [Example 1717, 2-{5-Chloro-4-[2-(2,3-dihydroxy-propoxy)-6-fluoro-phenylamino]-pyrimidin-2-ylamino}-5-methyl-8,9-dihydro-5H-7-oxa-5-aza-benzocyclohepten-6-one]
IC50 [1, 3]: 1 to 10 µM
IC50 [2, 4]: < 0.1 µM

COc1cc2c(cc1Nc1ncc(Cl)c(Nc3ccc(N4CCOCC4)cc3OC)n1)CCN(C[C@H](O)C(F)(F)F)CC2 [Example 462, (S)-3-{7-[5-Chloro-4-(2-methoxy-4-morpholin-4-yl-phenylamino)-pyrimidin-2-ylamino]-8-methoxy-1,2,4,5-tetrahydro-benzo[d]azepin-3-yl}-1,1,1-trifluoro-propan-2-ol]
IC50 [1, 7]: < 0.1 µM
IC50 [2, 8]: > 10 µM
